Assay: Diffusion or passage of latanoprost from the substance insert through the wall of the punctum plug
Type: physicochemical
Excerpt: In applications where it is desired to deliver the therapeutic or diagnostic substance to or through the cornea or the eye it is desirable to cause the substance to become dissolved in the tear film TF which covers the cornea of the eye, while deterring or minimizing untoward loss of substance through other routes, such as through direct absorption into tissues surrounding the punctum and/or canaliculus LC in which the device is implanted (referred to generally herein as “pericanalicular tissue absorption”) or by drainage through the naso-lacrimal system into the nose. One way to limit or deter such loss of substance is to render all or part of the punctum plug 12, 12a impervious to the substance so that the substance cannot diffuse or pass through the wall of the punctum plug 12, 12a. This may be particularly important in embodiments where the punctum plug 12, 12a is formed of silicone or other material through which the substance can pass. […] The substance insert receiving portion 20b may have the same configuration as either of those substance insert receiving portions 20, 20a described above. However, in this embodiment, a coating 60 has been applied to the outer surface of the side wall of the substance insert receiving portion 20b. Such coating may also be applied to other portions of the punctum plug 12b or to the entire punctum plug 12b. […]

CC(C)OC(=O)CCC/C=C\C[C@@H]1[C@@H](CC[C@@H](O)CCc2ccccc2)[C@H](O)C[C@@H]1O [latanoprost]
diffusion or passage through the wall of the punctum plug (punctum plug formed of silicone, no coating, substance insert contains latanoprost): some of the latanoprost will diffuse or pass through the wall of the punctum plug
loss by diffusion or passage through the punctum plug (substance-impervious coating 60 applied to outer surface of the substance insert receiving portion and/or other portions of the punctum plug): substantially prevented

Reference: patent US20100189766A1, “SUBSTANCE DELIVERING PUNCTUM IMPLANTS AND METHODS” (QLT PLUG DELIVERY, INC., priority 2008, published 2010)
